Results as given in article PMC10176470, “Engaging a Non-catalytic Cysteine Residue Drives Potent and Selective Inhibition of Caspase-6” (Journal of the American Chemical Society, 2023).

Experiments:
Format in all cases: cell-based
[1] = target: proteins of HEK293T cells transiently overexpressing caspase-6 (Homo sapiens, UniProt P34897); details: Probe; protein SHMT2 P34897
[2] = target: T1, proteins of HEK293T cells transiently overexpressing caspase-6 (Homo sapiens, UniProt P04075); details: protein ALDOA (P04075)
T1 sequence (P04075 1-364): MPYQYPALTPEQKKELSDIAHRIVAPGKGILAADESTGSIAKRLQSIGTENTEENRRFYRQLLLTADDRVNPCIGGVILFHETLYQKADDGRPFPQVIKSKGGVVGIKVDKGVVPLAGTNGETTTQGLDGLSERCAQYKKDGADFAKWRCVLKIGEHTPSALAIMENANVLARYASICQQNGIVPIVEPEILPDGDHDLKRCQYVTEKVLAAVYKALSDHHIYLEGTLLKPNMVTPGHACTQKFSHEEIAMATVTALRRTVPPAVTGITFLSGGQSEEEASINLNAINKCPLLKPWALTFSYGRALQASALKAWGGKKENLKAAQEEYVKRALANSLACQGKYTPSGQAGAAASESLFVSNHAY

[3] = target: T2, proteins of HEK293T cells transiently overexpressing caspase-6 (Homo sapiens, UniProt P00505)
T2 sequence (P00505 30-430): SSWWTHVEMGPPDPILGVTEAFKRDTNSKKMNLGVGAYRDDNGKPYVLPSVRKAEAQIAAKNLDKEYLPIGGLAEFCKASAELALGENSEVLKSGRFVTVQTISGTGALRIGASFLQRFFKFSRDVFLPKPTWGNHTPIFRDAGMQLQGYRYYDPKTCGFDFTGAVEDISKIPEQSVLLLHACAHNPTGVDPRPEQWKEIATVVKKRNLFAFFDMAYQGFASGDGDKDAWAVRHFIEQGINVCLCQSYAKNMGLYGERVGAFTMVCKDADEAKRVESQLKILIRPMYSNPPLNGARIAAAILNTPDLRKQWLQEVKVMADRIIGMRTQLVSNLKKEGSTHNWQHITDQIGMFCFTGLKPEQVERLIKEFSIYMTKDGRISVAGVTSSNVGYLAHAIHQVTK

[4] = target: T3, proteins of HEK293T cells transiently overexpressing caspase-6 (Homo sapiens, UniProt P22234); details: protein PAICS (P22234)
T3 sequence (P22234 1-425): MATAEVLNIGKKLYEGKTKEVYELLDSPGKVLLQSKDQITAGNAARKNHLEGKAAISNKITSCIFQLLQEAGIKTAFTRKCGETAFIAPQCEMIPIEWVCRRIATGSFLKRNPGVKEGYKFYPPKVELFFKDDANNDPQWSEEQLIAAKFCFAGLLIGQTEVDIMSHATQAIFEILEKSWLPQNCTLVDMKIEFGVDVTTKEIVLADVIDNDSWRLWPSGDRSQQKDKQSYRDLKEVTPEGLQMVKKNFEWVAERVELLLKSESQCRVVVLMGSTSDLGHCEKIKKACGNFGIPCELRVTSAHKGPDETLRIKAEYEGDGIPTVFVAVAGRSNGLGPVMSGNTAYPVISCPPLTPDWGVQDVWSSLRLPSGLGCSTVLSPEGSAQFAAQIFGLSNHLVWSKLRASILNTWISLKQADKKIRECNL

[5] = target: T4, proteins of HEK293T cells transiently overexpressing caspase-6 (Homo sapiens, UniProt P30101); details: protein PDIA3 (P30101)
T4 sequence (P30101 25-505): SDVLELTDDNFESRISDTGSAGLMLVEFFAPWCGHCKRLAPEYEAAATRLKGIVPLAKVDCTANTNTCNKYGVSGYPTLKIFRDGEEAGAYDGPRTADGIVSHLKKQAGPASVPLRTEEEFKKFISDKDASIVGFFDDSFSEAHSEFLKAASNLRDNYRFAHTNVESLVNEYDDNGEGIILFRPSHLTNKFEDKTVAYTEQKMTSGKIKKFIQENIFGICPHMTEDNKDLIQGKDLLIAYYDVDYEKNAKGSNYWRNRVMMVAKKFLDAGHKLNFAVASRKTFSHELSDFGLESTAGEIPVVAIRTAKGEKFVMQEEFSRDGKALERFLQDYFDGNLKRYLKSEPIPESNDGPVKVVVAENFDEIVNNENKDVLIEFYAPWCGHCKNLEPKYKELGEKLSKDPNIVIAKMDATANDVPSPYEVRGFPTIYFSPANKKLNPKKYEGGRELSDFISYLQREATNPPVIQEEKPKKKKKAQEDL

[6] = target: proteins of HEK293T cells transiently overexpressing caspase-6 (Homo sapiens, UniProt P26599); details: exp_ref Probe; protein PTBP1 (P26599); analysis C6
[7] = target: proteins of HEK293T cells transiently overexpressing caspase-6 (Homo sapiens, UniProt P53985); details: exp_ref Probe; protein SLC16A1 (P53985); analysis C6
[8] = target: proteins of HEK293T cells transiently overexpressing caspase-6 (Homo sapiens, UniProt Q99798); details: exp_ref Probe; protein ACO2 (Q99798); analysis C6
[9] = target: proteins of HEK293T cells transiently overexpressing caspase-6 (Homo sapiens, UniProt P38606); details: exp_ref Probe; protein ATP6V1A (P38606); analysis C6
[10] = target: proteins of HEK293T cells transiently overexpressing caspase-6 (Homo sapiens, UniProt P25205); details: exp_ref Probe; protein MCM3 (P25205); analysis C6
[11] = target: proteins of HEK293T cells transiently overexpressing caspase-6 (Homo sapiens, UniProt Q13148); details: protein TARDBP (Q13148); exp_ref Probe; analysis C6
[12] = target: proteins of HEK293T cells transiently overexpressing caspase-6 (Homo sapiens, UniProt P08195); details: protein SLC3A2 (P08195); exp_ref Probe; analysis C6
Chain of proteins of HEK293T cells transiently overexpressing caspase-6 (Homo sapiens, UniProt P08195) (P08195 102-630): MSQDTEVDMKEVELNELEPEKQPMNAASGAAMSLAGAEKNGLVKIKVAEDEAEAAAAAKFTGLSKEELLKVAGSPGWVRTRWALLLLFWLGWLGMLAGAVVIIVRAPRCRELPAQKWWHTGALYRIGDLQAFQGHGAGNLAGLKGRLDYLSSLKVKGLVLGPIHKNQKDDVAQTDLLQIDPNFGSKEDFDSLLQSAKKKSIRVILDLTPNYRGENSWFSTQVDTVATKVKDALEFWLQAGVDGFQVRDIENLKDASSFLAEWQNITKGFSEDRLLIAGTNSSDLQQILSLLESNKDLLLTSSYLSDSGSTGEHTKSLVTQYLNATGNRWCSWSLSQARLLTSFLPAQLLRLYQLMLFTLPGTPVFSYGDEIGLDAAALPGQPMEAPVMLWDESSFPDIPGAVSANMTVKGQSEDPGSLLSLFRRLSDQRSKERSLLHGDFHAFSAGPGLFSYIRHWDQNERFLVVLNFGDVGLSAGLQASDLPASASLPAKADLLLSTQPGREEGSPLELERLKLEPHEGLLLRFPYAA

Chain of proteins of HEK293T cells transiently overexpressing caspase-6 (Homo sapiens, UniProt P34897) (P34897 30-504): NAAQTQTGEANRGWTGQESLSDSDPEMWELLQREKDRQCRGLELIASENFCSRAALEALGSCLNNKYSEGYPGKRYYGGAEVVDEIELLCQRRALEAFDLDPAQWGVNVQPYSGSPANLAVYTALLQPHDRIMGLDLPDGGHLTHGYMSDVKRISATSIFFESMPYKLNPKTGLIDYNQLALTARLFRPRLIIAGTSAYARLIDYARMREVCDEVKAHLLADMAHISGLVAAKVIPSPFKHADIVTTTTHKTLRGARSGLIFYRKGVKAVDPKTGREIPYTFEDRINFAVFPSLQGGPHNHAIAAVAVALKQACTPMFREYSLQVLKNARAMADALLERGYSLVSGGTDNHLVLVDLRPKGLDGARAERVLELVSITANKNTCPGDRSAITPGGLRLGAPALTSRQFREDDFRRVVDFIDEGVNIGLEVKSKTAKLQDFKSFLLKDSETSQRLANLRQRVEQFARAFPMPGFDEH
Chain of proteins of HEK293T cells transiently overexpressing caspase-6 (Homo sapiens, UniProt Q13148) (Q13148 whole entry): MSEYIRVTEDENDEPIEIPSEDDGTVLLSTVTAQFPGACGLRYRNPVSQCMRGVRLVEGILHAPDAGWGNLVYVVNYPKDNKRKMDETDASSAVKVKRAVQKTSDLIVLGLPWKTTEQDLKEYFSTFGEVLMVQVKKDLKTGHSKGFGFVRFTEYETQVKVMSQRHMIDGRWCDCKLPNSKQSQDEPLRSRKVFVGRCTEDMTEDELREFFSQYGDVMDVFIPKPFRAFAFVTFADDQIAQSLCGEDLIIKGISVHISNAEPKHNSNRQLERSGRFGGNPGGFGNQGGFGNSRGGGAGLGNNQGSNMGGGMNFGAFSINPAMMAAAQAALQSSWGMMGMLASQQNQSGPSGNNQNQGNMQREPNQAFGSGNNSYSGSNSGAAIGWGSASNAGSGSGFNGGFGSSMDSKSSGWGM
Chain of proteins of HEK293T cells transiently overexpressing caspase-6 (Homo sapiens, UniProt P25205) (P25205 whole entry): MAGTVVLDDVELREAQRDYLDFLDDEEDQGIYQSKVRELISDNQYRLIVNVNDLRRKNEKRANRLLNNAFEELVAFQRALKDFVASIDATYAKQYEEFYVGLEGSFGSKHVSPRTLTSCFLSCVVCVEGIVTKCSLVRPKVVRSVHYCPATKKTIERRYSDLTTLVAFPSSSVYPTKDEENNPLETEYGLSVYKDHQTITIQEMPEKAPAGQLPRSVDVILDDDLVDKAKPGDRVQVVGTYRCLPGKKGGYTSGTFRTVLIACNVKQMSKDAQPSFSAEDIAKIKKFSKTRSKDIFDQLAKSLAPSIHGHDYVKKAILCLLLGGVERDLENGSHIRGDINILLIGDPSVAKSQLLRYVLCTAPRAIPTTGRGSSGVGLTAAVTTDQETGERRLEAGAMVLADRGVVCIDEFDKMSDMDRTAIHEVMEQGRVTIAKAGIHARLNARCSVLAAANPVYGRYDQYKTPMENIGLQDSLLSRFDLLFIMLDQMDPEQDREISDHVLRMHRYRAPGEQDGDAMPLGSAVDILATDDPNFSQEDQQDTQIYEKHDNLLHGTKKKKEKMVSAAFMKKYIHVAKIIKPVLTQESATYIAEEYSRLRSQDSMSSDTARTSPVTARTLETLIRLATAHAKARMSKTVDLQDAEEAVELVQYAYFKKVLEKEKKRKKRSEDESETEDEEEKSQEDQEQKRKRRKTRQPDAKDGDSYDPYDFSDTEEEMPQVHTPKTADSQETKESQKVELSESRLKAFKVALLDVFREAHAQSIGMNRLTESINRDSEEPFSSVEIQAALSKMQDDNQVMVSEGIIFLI
Chain of proteins of HEK293T cells transiently overexpressing caspase-6 (Homo sapiens, UniProt P53985) (P53985 whole entry): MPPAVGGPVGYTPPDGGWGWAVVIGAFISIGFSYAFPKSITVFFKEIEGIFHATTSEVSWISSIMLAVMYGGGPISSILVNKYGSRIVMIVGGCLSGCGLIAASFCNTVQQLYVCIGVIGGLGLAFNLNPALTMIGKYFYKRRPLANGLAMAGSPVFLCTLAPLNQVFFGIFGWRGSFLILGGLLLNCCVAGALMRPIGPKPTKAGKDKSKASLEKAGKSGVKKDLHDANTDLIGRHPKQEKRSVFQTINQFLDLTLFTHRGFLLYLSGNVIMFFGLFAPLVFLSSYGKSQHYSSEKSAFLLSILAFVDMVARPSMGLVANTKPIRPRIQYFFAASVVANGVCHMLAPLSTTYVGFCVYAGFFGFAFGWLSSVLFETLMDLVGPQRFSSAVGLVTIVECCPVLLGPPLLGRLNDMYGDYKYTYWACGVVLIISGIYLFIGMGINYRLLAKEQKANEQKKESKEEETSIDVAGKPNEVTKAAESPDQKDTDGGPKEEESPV
Chain of proteins of HEK293T cells transiently overexpressing caspase-6 (Homo sapiens, UniProt P38606) (P38606 whole entry): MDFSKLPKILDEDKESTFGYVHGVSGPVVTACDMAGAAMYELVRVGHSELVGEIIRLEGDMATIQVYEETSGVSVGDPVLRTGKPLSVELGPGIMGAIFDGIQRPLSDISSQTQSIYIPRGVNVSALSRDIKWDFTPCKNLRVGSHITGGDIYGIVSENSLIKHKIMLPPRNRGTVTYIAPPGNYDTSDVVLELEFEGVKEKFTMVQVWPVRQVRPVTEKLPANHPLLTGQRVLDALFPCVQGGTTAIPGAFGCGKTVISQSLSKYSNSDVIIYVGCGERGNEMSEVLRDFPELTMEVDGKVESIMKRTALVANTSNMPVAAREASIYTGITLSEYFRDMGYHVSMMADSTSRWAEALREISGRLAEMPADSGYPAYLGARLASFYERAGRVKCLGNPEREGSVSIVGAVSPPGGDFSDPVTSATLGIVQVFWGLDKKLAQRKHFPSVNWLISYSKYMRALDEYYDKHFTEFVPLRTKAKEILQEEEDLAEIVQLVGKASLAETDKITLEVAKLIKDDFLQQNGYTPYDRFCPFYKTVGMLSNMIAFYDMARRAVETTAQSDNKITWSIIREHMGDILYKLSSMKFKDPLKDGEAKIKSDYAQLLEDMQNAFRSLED
Chain of proteins of HEK293T cells transiently overexpressing caspase-6 (Homo sapiens, UniProt P26599) (P26599 whole entry): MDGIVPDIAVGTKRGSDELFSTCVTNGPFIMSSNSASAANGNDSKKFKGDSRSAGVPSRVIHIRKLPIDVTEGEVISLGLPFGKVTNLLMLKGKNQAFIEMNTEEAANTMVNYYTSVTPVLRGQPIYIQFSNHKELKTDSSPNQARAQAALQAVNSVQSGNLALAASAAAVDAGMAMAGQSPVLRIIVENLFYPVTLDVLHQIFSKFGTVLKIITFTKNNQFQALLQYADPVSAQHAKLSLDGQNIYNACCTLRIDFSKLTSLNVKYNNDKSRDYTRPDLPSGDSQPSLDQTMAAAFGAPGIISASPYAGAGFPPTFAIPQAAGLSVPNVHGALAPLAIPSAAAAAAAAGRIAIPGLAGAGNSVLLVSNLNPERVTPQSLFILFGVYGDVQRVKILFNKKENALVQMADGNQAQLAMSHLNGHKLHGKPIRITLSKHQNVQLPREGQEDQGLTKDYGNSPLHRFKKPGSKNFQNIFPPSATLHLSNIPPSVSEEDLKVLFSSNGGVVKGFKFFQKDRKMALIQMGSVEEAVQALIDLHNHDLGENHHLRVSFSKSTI
Chain of proteins of HEK293T cells transiently overexpressing caspase-6 (Homo sapiens, UniProt Q99798) (Q99798 28-780): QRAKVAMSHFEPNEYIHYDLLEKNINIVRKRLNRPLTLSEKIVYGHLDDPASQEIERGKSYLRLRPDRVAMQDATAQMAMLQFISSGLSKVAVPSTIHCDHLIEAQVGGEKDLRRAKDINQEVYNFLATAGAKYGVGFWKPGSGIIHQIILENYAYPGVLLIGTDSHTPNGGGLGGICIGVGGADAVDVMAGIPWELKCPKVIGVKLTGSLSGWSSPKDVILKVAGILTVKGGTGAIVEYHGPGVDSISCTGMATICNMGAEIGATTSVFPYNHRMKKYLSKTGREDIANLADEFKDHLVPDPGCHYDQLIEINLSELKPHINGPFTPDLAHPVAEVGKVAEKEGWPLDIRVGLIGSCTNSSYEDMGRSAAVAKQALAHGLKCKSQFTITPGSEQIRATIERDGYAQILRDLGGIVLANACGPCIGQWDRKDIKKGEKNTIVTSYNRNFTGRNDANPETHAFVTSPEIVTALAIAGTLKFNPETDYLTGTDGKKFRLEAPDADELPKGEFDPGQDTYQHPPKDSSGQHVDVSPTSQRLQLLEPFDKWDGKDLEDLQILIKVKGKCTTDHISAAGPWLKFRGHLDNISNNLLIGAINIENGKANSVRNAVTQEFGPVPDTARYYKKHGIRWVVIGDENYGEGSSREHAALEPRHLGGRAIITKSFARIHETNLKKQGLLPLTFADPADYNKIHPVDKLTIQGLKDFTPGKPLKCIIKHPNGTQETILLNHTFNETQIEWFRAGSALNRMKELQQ

Question: Which results are given for `C#CCOc1ccc([C@@H]2C[C@@H](C(=O)Nc3ccc(OC(F)(F)F)cc3)CN(S(=O)(=O)C=C)C2)cc1` (relative stereo) [13-t]?
Answer: enrich.exp.med [1]: -2.762; enrich.exp.med ([2]; exp_ref Probe, analysis C6): 0.8107; enrich.exp.med.lin [2]: 1.754; enrich.exp.med.log2 [2]: 0.8107; enrich.exp.med ([3]; Probe, protein GOT2 P00505): -0.8861; enrich.exp.med.lin ([3]; protein GOT2 (P00505)): 0.5411; enrich.exp.med.log2 ([3]; protein GOT2 (P00505)): -0.8861; enrich.exp.med ([4]; exp_ref Probe, analysis C6): 0.8585; enrich.exp.med.lin [4]: 1.813; enrich.exp.med.log2 [4]: 0.8585; enrich.exp.med ([5]; exp_ref Probe, analysis C6): 0.6793; enrich.exp.med.lin [5]: 1.601; enrich.exp.med.log2 [5]: 0.6793; enrich.exp.med [6]: 0.1008; enrich.exp.med [7]: -0.3557; enrich.exp.med [8]: -0.3317; enrich.exp.med [9]: 0.7344; enrich.exp.med [10]: 0.2109; enrich.exp.med [11]: 1.294; enrich.exp.med [12]: 1.379
